Source: ChEMBL document CHEMBL5126551, “Spiral molecules with antimalarial activities: A review” (Eur J Med Chem, 2022)
≈ marks a conversion by molar mass, not a printed value.

Experiments:
Plasmodium falciparum [1] = experiment: Antimalarial activity against chloroquine-sensitive Plasmodium falciparum 3D7 infected in human red blood cells assessed as reduction in parasite growth incubated for 72 hrs by SYBR green I-based DNA quantification assay; format: functional, organism-based, Red blood cell; settings: 3D7, Erythrocyte
Plasmodium falciparum [2] = experiment: Antimalarial activity against multidrug-resistant Plasmodium falciparum Dd2 infected in human red blood cells assessed as reduction in parasite growth incubated for 72 hrs by SYBR green I-based DNA quantification assay; format: functional, organism-based, Red blood cell; settings: Dd2, Erythrocyte
Plasmodium falciparum [3] = experiment: Antimalarial activity against chloroquine-sensitive Plasmodium falciparum NF54 infected in human red blood cells assessed as reduction in parasite growth incubated for 72 hrs by SYBR green I-based DNA quantification assay; format: functional, organism-based, Red blood cell; settings: NF54, Erythrocyte
Plasmodium falciparum [4] = experiment: Antimalarial activity against chloroquine resistant Plasmodium falciparum K1 assessed as inhibition of parasite growth incubated for 72 hrs by HRP2-based ELISA assay; format: functional, organism-based; settings: K1, 72 h
Plasmodium falciparum [5] = experiment: Antimalarial activity against chloroquine-sensitive Plasmodium falciparum 3D7 assessed as reduction in parasite growth incubated for 72 hrs by SYBR green I-based DNA quantification assay; format: functional, organism-based; settings: 3D7, 72 h
Plasmodium falciparum [6] = experiment: Antimalarial activity against multidrug-resistant early ring stage Plasmodium falciparum K14 infected in human erythrocytes assessed as inhibition of parasite growth incubated for 48 hrs by [3H]-hypoxanthine incorporation assay; format: functional, organism-based; settings: K14, Erythrocyte
Plasmodium falciparum [7] = experiment: Antimalarial activity against Plasmodium falciparum K1 infected in human red blood cells assessed as inhibition of parasite growth incubated for 48 hrs by Giema staining based assay; format: functional, organism-based, Red blood cell; settings: K1, Erythrocyte
Plasmodium falciparum [8] = experiment: Antimalarial activity against Plasmodium falciparum Cam3.I^R539T assessed as inhibition of parasite growth measured after 6 hrs; format: functional
Plasmodium falciparum [9] = experiment: Antimalarial activity against chloroquine and pyrimethamine resistant Plasmodium falciparum K1 infected in human red blood cells assessed as inhibition of parasite growth incubated for 72 hrs by [3H]-hypoxanthine incorporation assay based liquid scintillation counter method; format: functional, organism-based, Red blood cell; settings: K1, Erythrocyte
Plasmodium falciparum [10] = experiment: Antimalarial activity against chloroquine-sensitive Plasmodium falciparum NF54 infected in human red blood cells assessed as inhibition of parasite growth incubated for 72 hrs by [3H]-hypoxanthine incorporation assay based liquid scintillation counter method; format: functional, organism-based, Red blood cell; settings: NF54, Erythrocyte
Plasmodium falciparum [11] = experiment: Antimalarial activity against drug-resistant Plasmodium falciparum K1 assessed as inhibition of parasite growth; format: functional, organism-based
Plasmodium falciparum [12] = experiment: Antimalarial activity against drug-sensitive Plasmodium falciparum FCR3 assessed as inhibition of parasite growth; format: functional, organism-based
Plasmodium falciparum [13] = experiment: Antimalarial activity against chloroquine-resistant Plasmodium falciparum FCB-2 infected in human erythrocyte assessed as inhibition of parasite growth incubated for 48 hrs by [3H]-hypoxanthine incorporation assay based liquid scintillation counter method; format: functional, organism-based; settings: FCB-2, Erythrocyte
Plasmodium falciparum [14] = experiment: Antimalarial activity against chloroquine, amodiaquine, quinine and artesunate-resistant Plasmodium falciparum NF-54 infected in human erythrocyte assessed as inhibition of parasite growth incubated for 48 hrs by [3H]-hypoxanthine incorporation assay based liquid scintillation counter method; format: functional, organism-based; settings: NF-54, Erythrocyte
Plasmodium falciparum [15] = experiment: Antimalarial activity against chloroquine-sensitive Plasmodium falciparum 3D7 infected in human erythrocyte assessed as inhibition of parasite growth incubated for 66 hrs by [3H]-hypoxanthine incorporation assay based liquid scintillation spectrometric method; format: functional, organism-based; settings: 3D7, Erythrocyte
Plasmodium falciparum [16] = experiment: Antimalarial activity against Plasmodium falciparum infected in human […] assessed as inhibition of parasite growth incubated for 30 hrs by [3H]-hypoxanthine incorporation assay based liquid scintillation spectrometric method; format: functional, organism-based

SMILES: COc1cc2c(cc1OC)C1(NCC2)C(=O)Nc2ccc(Cl)cc21 (stereo unspecified)
- EC50 (Plasmodium falciparum [1]): 1860 nM
- EC50 (Plasmodium falciparum [2]): 1730 nM
- EC50 (Plasmodium falciparum [3]): 686 nM

SMILES: COc1ccc(COCCC2NCCC23C(=O)Nc2ccccc23)cc1 (stereo unspecified)
- IC50 (Plasmodium falciparum [4]): 10600 nM

SMILES: OC(CN1CCC2(CC1)CC(O)c1ccc3ccccc3c1O2)c1ccc(F)c(F)c1 (stereo unspecified)
- EC50 (Plasmodium falciparum [5]): 390 nM

SMILES: O=C1C=Cc2cc(O)c(O)cc2C12C(=O)C=Cc1cc(O)c(O)cc12
- IC50 (Plasmodium falciparum [6]): 2320 nM

SMILES: O=C1CCCCC12Oc1c(Cl)cccc1C2=O (stereo unspecified)
- IC50 (Plasmodium falciparum [7]): 29.3 µg/mL (≈ 117 µM)

SMILES: C[C@H]1[C@@H](O)O[C@@H]2O[C@@]3(C)CC[C@H]4[C@H](C)CC[C@@H]1[C@@]24OO3 [ARTENIMOL]
- IC90 (Plasmodium falciparum [8]): 0.0027 µg/mL (≈ 0.0095 µM)

SMILES: CCCCCCCCCCCCC[C@@H]1C[C@@H](O)C[C@]2(CCC3(C=CC(=O)C=C3)O2)O1 [ACULEATIN A]
- IC50 (Plasmodium falciparum [9]): 180 nM
- IC50 (Plasmodium falciparum [10]): 200 nM

SMILES: CNCCc1cc(Br)c(OCCCNC(=O)N(C)CCc2cc(Br)c(OCCCNC(=O)C3=NO[C@]4(CC(Br)=C(OC)C(Br)=CO4)[C@@H]3O)c(Br)c2)c(Br)c1
- IC50 (Plasmodium falciparum [11]): 1.03 µg/mL (≈ 0.904 µM)
- IC50 (Plasmodium falciparum [12]): 0.77 µg/mL (≈ 0.676 µM)

SMILES: C[C@@H]1CC[C@]2(C[C@H]3C[C@H]4[C@@H]5CCC67OC6C(=O)CC[C@]7(C)[C@H]5CC[C@]4(C)[C@H]3[C@@H]2C)OC1 (stereo partly specified)
- IC50 (Plasmodium falciparum [13]): 10100 nM
- IC50 (Plasmodium falciparum [14]): 8500 nM

SMILES: CCCCCCCCCCCCCC1OC2CC(O)C=CC23C1C(=O)N3Cc1ccccc1 (stereo unspecified)
- IC50 (Plasmodium falciparum [15]): 860 nM
- IC50 (Plasmodium falciparum [16]): 5550 nM
